Here are results for seven compounds from US5051403A (priority 1989, dated 1991).

In general, IC50 refers to the concentration at which inhibition is half-maximal. Usually Ki stands for the dissociation constant of the complex between target and ligand, obtained from inhibition or displacement. High values mean weaker binding, low ones tighter binding.

In assay [1] the test system is hippocampal CA1 region, gerbil global ischemia model. Further details: species or system Meriones unguiculatus (mongolian gerbil). The note with it: in vivo.
The subject of assay [2] is depolarization-dependent ATP release from electric organ synaptosomes. In kind it is biochemical, Ommata discopyge. The note with it: read-out: IC50 (ATP release inhibition).
The subject of assay [3] is voltage-gated calcium channels, dorsal root ganglion (DRG) neurons. The note with it: cited from earlier work.
Assay [4] deals with OCT binding sites, elasmobranch electric organ synaptosomes (Diplobatis ommata, UniProt P56698). As to the kind of experiment: biochemical. Details: species or system Ommata dyscopyge (marine electric ray).
The target of assay [5] is OCT binding site, rat brain synaptosomes (Rattus norvegicus, UniProt Q02294). As to the kind of experiment: biochemical.
Another assay deals with Male Swiss-Webster mice. To be noted: mouse, in vivo; cited from earlier work.
Assay [6] deals with OCT receptor sites, 293 human kidney cells. The class given is binding.
Assay [7] relates to hippocampal CA1 region, rat four-vessel occlusion model. Further details: species or system rat (Fisher 344). To be noted: in vivo.
For assay [8], the target named is OCT receptor sites, PC-12 rat pheochromocytoma cells (Rattus norvegicus, UniProt Q02294). The class given is binding.

SMILES strings stand for the structures. Where “and” joins values, the source holds several entries; their conditions need not be identical. Identical values can stand only once. Bridge positions count the residues as written; N and C are the ends. Square brackets hold non-standard residues; d marks the D form. Peptide text beside a SMILES is read from it. Hyp = O=C(O)[C@@H]1C[C@@H](O)CN1

Chain of OCT binding site, rat brain synaptosomes (Q02294 whole entry, looked up): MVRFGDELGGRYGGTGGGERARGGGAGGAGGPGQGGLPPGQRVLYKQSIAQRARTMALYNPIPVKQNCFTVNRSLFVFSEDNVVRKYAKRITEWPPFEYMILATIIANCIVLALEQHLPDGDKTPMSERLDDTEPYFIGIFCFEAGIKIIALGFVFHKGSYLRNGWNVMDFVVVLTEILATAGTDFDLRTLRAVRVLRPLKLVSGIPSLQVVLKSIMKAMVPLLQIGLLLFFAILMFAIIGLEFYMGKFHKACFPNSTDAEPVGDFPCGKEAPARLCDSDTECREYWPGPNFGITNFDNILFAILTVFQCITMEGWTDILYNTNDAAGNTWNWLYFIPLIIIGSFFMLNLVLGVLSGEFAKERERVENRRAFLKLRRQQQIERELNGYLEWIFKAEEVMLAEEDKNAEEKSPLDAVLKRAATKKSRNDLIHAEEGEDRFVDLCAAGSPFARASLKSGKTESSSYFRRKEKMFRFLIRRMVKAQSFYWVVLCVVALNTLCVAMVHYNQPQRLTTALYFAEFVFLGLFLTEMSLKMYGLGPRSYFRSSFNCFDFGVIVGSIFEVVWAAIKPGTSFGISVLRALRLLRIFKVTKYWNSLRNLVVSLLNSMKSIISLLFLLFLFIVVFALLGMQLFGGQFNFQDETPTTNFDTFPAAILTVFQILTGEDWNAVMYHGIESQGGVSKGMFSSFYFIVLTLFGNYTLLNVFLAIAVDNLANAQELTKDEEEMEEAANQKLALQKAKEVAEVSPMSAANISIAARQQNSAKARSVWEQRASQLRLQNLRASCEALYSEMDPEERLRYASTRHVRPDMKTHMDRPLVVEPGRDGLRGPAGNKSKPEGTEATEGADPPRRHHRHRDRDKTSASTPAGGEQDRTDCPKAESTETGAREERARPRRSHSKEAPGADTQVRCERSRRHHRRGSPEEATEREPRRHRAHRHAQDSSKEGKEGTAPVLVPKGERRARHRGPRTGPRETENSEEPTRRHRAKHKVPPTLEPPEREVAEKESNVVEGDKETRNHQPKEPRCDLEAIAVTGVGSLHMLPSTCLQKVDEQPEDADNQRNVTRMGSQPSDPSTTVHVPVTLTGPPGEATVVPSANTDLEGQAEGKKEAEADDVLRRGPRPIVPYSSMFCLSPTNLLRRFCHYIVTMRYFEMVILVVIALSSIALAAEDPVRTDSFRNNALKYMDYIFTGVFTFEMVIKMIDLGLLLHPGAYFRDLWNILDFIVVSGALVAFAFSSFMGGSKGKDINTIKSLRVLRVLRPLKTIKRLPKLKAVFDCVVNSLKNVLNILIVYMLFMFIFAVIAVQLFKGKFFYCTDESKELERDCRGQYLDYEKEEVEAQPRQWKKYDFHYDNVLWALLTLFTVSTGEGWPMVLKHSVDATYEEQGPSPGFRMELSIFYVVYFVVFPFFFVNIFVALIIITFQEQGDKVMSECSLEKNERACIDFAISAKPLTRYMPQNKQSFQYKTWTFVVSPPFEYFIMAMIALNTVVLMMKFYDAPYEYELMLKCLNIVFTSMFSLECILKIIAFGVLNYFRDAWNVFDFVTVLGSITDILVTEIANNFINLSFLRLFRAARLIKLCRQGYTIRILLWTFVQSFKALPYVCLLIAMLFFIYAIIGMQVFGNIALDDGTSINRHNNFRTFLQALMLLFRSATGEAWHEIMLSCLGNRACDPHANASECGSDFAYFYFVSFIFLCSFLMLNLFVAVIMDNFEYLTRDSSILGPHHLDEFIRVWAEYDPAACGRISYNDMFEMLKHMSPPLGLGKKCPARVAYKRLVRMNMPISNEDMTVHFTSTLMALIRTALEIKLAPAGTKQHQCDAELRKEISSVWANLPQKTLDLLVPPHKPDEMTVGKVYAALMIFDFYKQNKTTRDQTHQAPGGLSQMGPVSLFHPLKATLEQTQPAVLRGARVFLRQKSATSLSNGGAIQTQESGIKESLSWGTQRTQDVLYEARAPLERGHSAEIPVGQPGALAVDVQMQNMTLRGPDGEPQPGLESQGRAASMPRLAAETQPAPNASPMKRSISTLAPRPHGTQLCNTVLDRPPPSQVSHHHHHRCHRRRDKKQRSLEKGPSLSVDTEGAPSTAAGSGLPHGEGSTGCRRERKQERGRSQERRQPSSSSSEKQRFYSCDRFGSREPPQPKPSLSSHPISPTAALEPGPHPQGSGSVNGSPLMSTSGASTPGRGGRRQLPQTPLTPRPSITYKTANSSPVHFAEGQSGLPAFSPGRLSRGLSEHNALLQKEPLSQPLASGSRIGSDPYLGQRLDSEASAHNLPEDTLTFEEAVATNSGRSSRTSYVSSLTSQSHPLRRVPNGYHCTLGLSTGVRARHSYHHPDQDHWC
Chain of OCT binding sites, elasmobranch electric organ synaptosomes (P56698 whole entry, looked up): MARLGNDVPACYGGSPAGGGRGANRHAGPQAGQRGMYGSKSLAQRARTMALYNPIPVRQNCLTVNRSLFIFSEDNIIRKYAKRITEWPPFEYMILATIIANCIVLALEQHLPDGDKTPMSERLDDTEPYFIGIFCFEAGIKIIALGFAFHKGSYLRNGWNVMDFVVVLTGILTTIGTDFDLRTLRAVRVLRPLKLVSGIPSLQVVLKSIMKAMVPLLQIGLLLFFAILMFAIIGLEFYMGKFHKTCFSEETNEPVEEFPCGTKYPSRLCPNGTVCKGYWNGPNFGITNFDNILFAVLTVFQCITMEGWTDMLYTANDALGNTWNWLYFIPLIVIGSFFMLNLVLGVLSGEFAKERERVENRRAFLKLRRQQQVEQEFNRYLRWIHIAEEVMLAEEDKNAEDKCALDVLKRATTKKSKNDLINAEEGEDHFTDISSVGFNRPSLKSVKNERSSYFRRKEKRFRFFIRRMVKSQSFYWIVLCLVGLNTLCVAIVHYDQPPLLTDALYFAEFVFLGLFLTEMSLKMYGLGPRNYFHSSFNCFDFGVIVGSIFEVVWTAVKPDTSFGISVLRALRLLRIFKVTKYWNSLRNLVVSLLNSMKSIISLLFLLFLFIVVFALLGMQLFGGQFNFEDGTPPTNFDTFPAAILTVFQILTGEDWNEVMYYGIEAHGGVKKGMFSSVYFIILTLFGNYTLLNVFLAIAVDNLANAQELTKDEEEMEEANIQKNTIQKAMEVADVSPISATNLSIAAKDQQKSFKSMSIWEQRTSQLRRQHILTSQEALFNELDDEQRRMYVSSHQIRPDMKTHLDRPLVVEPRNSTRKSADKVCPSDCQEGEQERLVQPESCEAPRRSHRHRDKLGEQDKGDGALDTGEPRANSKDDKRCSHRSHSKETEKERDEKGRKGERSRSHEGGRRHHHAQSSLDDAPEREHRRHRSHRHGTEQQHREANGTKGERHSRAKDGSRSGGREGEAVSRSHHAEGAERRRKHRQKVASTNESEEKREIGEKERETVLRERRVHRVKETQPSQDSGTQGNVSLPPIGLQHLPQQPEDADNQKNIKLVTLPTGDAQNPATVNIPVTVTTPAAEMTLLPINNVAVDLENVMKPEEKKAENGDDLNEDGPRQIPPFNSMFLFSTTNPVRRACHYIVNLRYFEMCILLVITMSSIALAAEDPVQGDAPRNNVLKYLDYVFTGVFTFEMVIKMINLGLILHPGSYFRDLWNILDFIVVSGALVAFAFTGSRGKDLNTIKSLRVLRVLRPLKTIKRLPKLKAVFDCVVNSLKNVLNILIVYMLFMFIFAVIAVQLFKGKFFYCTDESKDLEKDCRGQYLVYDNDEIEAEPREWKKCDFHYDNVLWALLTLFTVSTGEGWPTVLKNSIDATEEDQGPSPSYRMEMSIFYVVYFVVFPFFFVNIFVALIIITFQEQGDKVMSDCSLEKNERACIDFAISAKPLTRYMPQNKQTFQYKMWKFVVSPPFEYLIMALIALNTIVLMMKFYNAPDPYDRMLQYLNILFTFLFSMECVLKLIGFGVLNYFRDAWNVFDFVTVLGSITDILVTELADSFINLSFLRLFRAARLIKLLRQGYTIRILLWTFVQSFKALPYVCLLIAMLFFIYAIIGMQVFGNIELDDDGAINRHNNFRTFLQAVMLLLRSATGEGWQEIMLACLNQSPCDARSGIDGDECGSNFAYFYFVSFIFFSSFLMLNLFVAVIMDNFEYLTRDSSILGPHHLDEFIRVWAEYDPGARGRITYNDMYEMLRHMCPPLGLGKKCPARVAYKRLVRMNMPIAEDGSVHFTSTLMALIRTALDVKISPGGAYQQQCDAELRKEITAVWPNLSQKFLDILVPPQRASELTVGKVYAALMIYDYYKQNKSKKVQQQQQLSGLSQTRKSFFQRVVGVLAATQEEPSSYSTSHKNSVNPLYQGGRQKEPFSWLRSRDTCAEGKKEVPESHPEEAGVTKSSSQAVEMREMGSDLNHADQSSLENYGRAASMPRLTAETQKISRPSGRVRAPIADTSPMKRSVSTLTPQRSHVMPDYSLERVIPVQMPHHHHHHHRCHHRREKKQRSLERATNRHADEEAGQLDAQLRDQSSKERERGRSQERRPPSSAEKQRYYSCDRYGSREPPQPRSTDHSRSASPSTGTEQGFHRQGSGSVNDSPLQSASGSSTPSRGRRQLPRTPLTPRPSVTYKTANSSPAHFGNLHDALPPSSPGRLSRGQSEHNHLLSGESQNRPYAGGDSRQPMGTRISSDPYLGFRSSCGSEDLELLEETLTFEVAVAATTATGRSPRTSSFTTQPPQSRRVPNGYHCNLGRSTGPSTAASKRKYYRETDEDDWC
Chain of OCT receptor sites, PC-12 rat pheochromocytoma cells (Q02294 whole entry, looked up): as the sequence (Q02294 whole entry, looked up) above

Consider `C[C@@H](O)[C@@H]1NC(=O)[C@H](Cc2ccc(O)cc2)NC(=O)[C@@H]2C[C@@H](O)CN2C(=O)[C@H](CC(N)=O)NC(=O)[C@@H]2CSSC[C@@H]3NC(=O)[C@H](CO)NC(=O)[C@H](CO)NC(=O)CNC(=O)[C@@H]4C[C@@H](O)CN4C(=O)[C@H](CO)NC(=O)[C@H](CCCCN)NC(=O)[C@@H](N)CSSC[C@H](NC(=O)[C@H](CSSC[C@@H](C(=O)N[C@@H](Cc4ccc(O)cc4)C(N)=O)NC(=O)[C@H](CCCNC(=N)N)NC(=O)[C@H](CCCCN)NC1=O)NC(=O)[C@H](CC(N)=O)NC(=O)[C@H](Cc1ccc(O)cc1)NC(=O)[C@H](CO)NC(=O)[C@H]([C@@H](C)O)NC(=O)[C@@H]1C[C@@H](O)CN1C(=O)[C@H](CO)NC3=O)C(=O)N[C@@H](CCCNC(=N)N)C(=O)N[C@@H](CO)C(=O)N2` [GVIA, HCysLysSer4HypGlySerSerCysSer4HypThrSerTyrAsnCysCysArgSerCysAsn4HypTyrLysArgCysTyr-NH2], for which, in [1], the “Mean score (S.E.M), CA1 damage 0-4” value is 1.3 (.33) and 1.2 (.39); the “Percent Damage” value was 42% and 39%; the reduction in damage is recorded as over 50%. Besides, the IC50 in assay [2] is 0.2 µM. Besides, the “block of voltage-gated calcium channels” value in [3] is recorded as “block voltage-gated calcium channels”. In assay [4] (pKi), this compound showed a Ki of 0.0141 µM. Besides, the IC50 in assay [5] was 0.00048 µM.

Turning to `CSCC[C@@H]1NC(=O)CNC(=O)[C@H](CCCNC(=N)N)NC(=O)[C@H](CO)NC(=O)[C@@H]2CSSC[C@@H]3NC(=O)[C@H](CO)NC(=O)[C@H]([C@@H](C)O)NC(=O)[C@H](CSSC[C@H](N)C(=O)N[C@@H](CCCCN)C(=O)N[C@@H](CO)C(=O)N4C[C@H](O)C[C@H]4C(=O)NCC(=O)N[C@@H]([C@@H](C)O)C(=O)N4C[C@H](O)C[C@H]4C(=O)N2)NC(=O)[C@H](CSSC[C@@H](C(=O)N[C@@H](CCCNC(=N)N)C(=O)N[C@@H](CCCNC(=N)N)C(=O)N[C@@H](Cc2ccc(O)cc2)C(N)=O)NC(=O)[C@H](CCCCN)NC(=O)[C@H](CC(N)=O)NC(=O)[C@H](CO)NC(=O)[C@H](Cc2ccc(O)cc2)NC(=O)[C@H](CC(C)C)NC(=O)[C@H](CC(C)C)NC3=O)NC(=O)[C@H](CC(=O)O)NC(=O)[C@H](CCCNC(=N)N)NC1=O` [GVIIA] (H-CKS[Hyp]GT[Hyp]CSRGMRDCCTSCLLYSNKCRRY-NH2; disulfide 1-16, 8-19, 15-26), in [4] (pKi), the Ki is 0.00309 µM. The compound also had a half-inhibitory concentration (IC50) in assay [5] of 0.0229 µM.

`CSCC[C@@H]1NC(=O)[C@H](CC(C)C)NC(=O)[C@H](CCCNC(=N)N)NC(=O)[C@H](CO)NC(=O)[C@@H]2CSSC[C@@H]3NC(=O)[C@H](CO)NC(=O)CNC(=O)[C@H]([C@@H](C)O)NC(=O)[C@H](CSSC[C@H](N)C(=O)N[C@@H](CCCCN)C(=O)NCC(=O)N[C@@H](CCCCN)C(=O)NCC(=O)N[C@@H](C)C(=O)N[C@@H](CCCCN)C(=O)N2)NC(=O)[C@H](CSSC[C@@H](C(N)=O)NC(=O)[C@H](CCCCN)NC(=O)CNC(=O)[C@H](CO)NC(=O)[C@H](CCCNC(=N)N)NC3=O)NC(=O)[C@H](CC(=O)O)NC(=O)[C@H](Cc2ccc(O)cc2)NC1=O` [MVIIA]: the “effect of ICV administration in mice” value in the assay on Male Swiss-Webster mice is on record as “whole-body tremors”. Moreover, the “concentration of specific binding sites” value in assay [6] is under 4.6; in assay [8], 56.6 and 79.1. Moreover, in assay [2], the IC50 turned out to be 0.03 µM. Besides, in [7], the “Mean score (S.E.M), CA1 damage 0-4” value is on record as 1.2 (0.36).

As to `C[C@@H]1NC(=O)CNC(=O)[C@H](CCCCN)NC(=O)CNC(=O)[C@H](CCCCN)NC(=O)[C@@H](N)CSSC[C@@H]2NC(=O)[C@@H]3CSSC[C@@H](C(N)=O)NC(=O)[C@H](CCCCN)NC(=O)CNC(=O)[C@H](CCCNC(=N)N)NC(=O)[C@H](CC(N)=O)NC(=O)[C@H](CSSC[C@H](NC(=O)[C@H](CO)NC1=O)C(=O)N[C@@H](Cc1c[nH]cn1)C(=O)N[C@@H](CCCNC(=N)N)C(=O)N[C@@H]([C@@H](C)O)C(=O)N[C@@H](CO)C(=O)N[C@@H](Cc1ccc(O)cc1)C(=O)N[C@@H](CC(=O)O)C(=O)N3)NC(=O)[C@H](CO)NC(=O)CNC(=O)[C@H]([C@@H](C)O)NC2=O` [MVIIB] (H-CKGKGASCHRTSYDCCTGSCNRGKC-NH2; disulfide 1-16, 8-20, 15-25), the Ki in assay [4] (pKi) is 0.0219 µM. This compound had an IC50 in assay [5] of 0.00049 µM.

Consider `CC(C)[C@@H]1NC(=O)[C@H](CCCNC(=N)N)NC(=O)[C@@H]2CSSC[C@@H]3NC(=O)[C@H](CO)NC(=O)[C@H](CO)NC(=O)[C@H](CSSC[C@H](N)C(=O)N[C@@H](CCCCN)C(=O)N4CCC[C@H]4C(=O)N4C[C@H](O)C[C@H]4C(=O)NCC(=O)N[C@@H](CO)C(=O)N4C[C@H](O)C[C@H]4C(=O)N2)NC(=O)[C@H](CSSC[C@@H](C(=O)NCC(N)=O)NC(=O)[C@H](CCCCN)NC(=O)[C@H](CCCCN)NC(=O)[C@H](CC(N)=O)NC(=O)[C@H](Cc2ccc(O)cc2)NC(=O)[C@H](CO)NC(=O)[C@H](CCCCN)NC3=O)NC(=O)[C@H](CC(N)=O)NC(=O)[C@H](Cc2ccc(O)cc2)NC(=O)[C@H](CO)NC(=O)[C@H](CO)NC1=O` [RVIA] (H-CKP[Hyp]GS[Hyp]CRVSSYNCCSSCKSYNKKCG-NH2; disulfide 1-16, 8-19, 15-26), for which the Ki is 0.324 µM in assay [4] (Ki) and 0.355 µM in assay [4] (pKi). This compound had an IC50 in [5] of 0.229 µM.

As for `CC[C@H](C)[C@@H]1NC(=O)[C@H](CO)NC(=O)[C@H]([C@@H](C)O)NC(=O)[C@H](C(C)C)NC(=O)CNC(=O)[C@@H]2CSSC[C@@H]3NC(=O)[C@H](CCCNC(=N)N)NC(=O)CNC(=O)[C@H](CSSC[C@H](N)C(=O)N[C@@H](CCCNC(=N)N)C(=O)N[C@@H](CO)C(=O)N[C@@H](CO)C(=O)NCC(=O)N[C@@H](CO)C(=O)N4C[C@H](O)C[C@H]4C(=O)N[C@@H](Cc4c[nH]cn4)C(=O)N2)NC(=O)[C@H](CSSC[C@@H](C(=O)N[C@H](C(N)=O)[C@@H](C)O)NC(=O)[C@H](CCCCN)NC(=O)CNC(=O)[C@H](CCCNC(=N)N)NC(=O)[C@H](Cc2ccc(O)cc2)NC3=O)NC1=O` [SVIA, H-CysArgSerSerGlySer4HypHisCysGlyValThrSerIleCysCysGly ArgCysTyrArgGlyLysCysThr-NH2] (H-CRSSGS[Hyp]HCGVTSICCGRCYRGKCT-NH2; disulfide 1-16, 9-19, 15-24), in [4], the “binding affinity/activity (in words)” value is reported as “relatively low affinity binding”. Further, the inhibitory constant (Ki) in assay [4] (pKi) was over 1000 µM. In [5], this compound gave an IC50 of over 1000 µM.

The compound `CC(C)C[C@@H]1NC(=O)[C@H](CCCCN)NC(=O)[C@@H](N)CSSC[C@@H]2NC(=O)[C@@H]3CSSC[C@@H](C(N)=O)NC(=O)[C@H](CCCCN)NC(=O)CNC(=O)[C@H](CO)NC(=O)[C@H](CCCNC(=N)N)NC(=O)CNC(=O)[C@H](CSSC[C@H](NC(=O)[C@H](CO)NC(=O)[C@H](CCC(N)=O)NC(=O)CNC(=O)[C@H](CCCCN)NC1=O)C(=O)N[C@@H](CCCNC(=N)N)C(=O)N[C@@H](CCCCN)C(=O)N[C@@H]([C@@H](C)O)C(=O)N[C@@H](CO)C(=O)N[C@@H](Cc1ccc(O)cc1)C(=O)N[C@@H](CC(=O)O)C(=O)N3)NC(=O)[C@H](CO)NC(=O)CNC(=O)[C@H](CO)NC2=O` [SVIB] (H-CKLKGQSCRKTSYDCCSGSCGRSGKC-NH2; disulfide 1-16, 8-20, 15-26) gave a Ki in assay [4] (pKi) of 0.00302 µM. This compound gave an IC50 in assay [5] of 0.0057 µM.
